What was measured:
[1] = log P by HPLC on reversed phase columns (EEC directive 79/831 Annex V.A8); assay type: physicochemical; details: Table 1, formula (I), HPLC/LC-MS at pH 2.7, 0.1% formic acid in water / acetonitrile, gradient 10% to 95%
[2] = test system: Botrytis cinerea; test: In vivo preventive test on Botrytis cinerea (grey mould), gherkin plants; details: gherkin, spray, graded 4 to 5 days after contamination vs control plants
Protocol: In Vivo Preventive Test on Botrytis cinerea (Grey Mould)
(§1) The active ingredients tested are prepared by homogenization in a mixture of acetone/tween/DMSO and then diluted with water to obtain the desired active material concentration.
(§2) Gherkin plants (“Vert petit de Paris” variety), sown in starter cups on a 50/50 peat soil-pozzolana substrate and grown at 24° C., are treated at the Z11 cotyledon stage by spraying with the active ingredient prepared as described above. Plants, used as controls, are treated with the mixture of acetone/tween/DMSO/water not containing the active material.
After 24 hours, the plants are contaminated by spraying the cotyledons with an aqueous suspension of cryopreserved Botrytis cinerea spores (50 000 spores per ml). The spores are suspended in a nutrient solution composed of 10 g/L of PDB, 50 g/L of D-Fructose, 2 g/L of NH4NO3 and 1 g/L of KH2PO4. The contaminated gherkin plants are incubated at 17° C. and at 90% relative humidity.
Grading (% of efficacy) is carried out 4 to 5 days after the contamination, in comparison with the control plants.

[3] = test system: Puccinia recondita; test: In vivo preventive test on Puccinia recondita (brown rust on wheat); details: wheat, spray, graded 12 days after contamination vs control plants
Protocol: In Vivo Preventive Test on Puccinia recondita (Brown Rust on Wheat) […] Wheat plants (“Scipion” variety), sown in starter cups on a 50/50 peat soil-pozzolana substrate and grown at 22° C., are treated at the 1-leaf stage (10 cm height) by spraying with the active ingredient prepared as described above. Plants, used as controls, are treated with the mixture of acetone/tween/DMSO/water not containing the active material. After 24 hours, the plants are contaminated by spraying the leaves with an aqueous suspension of Puccinia recondita spores (100 000 spores per ml). The spores are collected from an infected plant and are suspended in water containing 2.5 ml/1 of Tween 80 at 10%. The contaminated wheat plants are incubated for 24 hours at 20° C. and at 100% relative humidity, and then for 10 days at 20° C. and at 70-80% relative humidity. Grading (% of efficacy) is carried out 12 days after the contamination, in comparison with the control plants.

[4] = test system: Septoria tritici; test: In vivo preventive test on Septoria tritici (leaf spot on wheat); details: preventive spray, wheat plants, grading 24 days after contamination
Protocol: In Vivo Preventive Test on Septoria tritici (Leaf Spot on Wheat)
(§3) The active ingredients tested are prepared by homogenization in a mixture of acetone/tween/DMSO, and then diluted with water to obtain the desired active material concentration.
Wheat plants (“Scipion” variety), sown in starter cups on a 50/50 peat soil-pozzolana substrate and grown at 22° C., are treated at the 1-leaf stage (10 cm height) by spraying with the active ingredient prepared as described above. Plants, used as controls, are treated with the mixture of acetone/tween/DMSO/water not containing the active material.
After 24 hours, the plants are contaminated by spraying the leaves with an aqueous suspension of cryopreserved Septoria tritici spores (500 000 spores per ml). The contaminated wheat plants are incubated for 72 hours at 18° C. and at 100% relative humidity, and then for 21 days at 90% relative humidity.
Grading (% of efficacy) is carried out 24 days after the contamination, in comparison with the control plants.

[5] = test system: Uromyces appendiculatus; test: In vivo preventive test on Uromyces appendiculatus (bean rust); details: preventive spray, bean plants, grading 11 days after contamination
Protocol: In Vivo Preventive Test on Uromyces appendiculatus (Bean Rust) […] Bean plants (“Saxa” variety), sown in starter cups on a 50/50 peat soil-pozzolana substrate and grown at 24° C., are treated at the 2-leaf stage (9 cm height) by spraying with the active ingredient prepared as described above. Plants, used as controls, are treated with the mixture of acetone/tween/DMSO/water not containing the active material. After 24 hours, the plants are contaminated by spraying the leaves with an aqueous suspension of Uromyces appendiculatus spores (150 000 spores per ml). The spores are collected from infected plants and are suspended in water containing 2.5 ml/1 of Tween 80 at 10%. The contaminated bean plants are incubated for 24 hours at 20° C. and at 100% relative humidity, and then for 10 days at 20° C. and at 70-80% relative humidity. Grading (% of efficacy) is carried out 11 days after the contamination, in comparison with the control plants.

[6] = test system: Alternaria brassicae; test: In vivo preventive test on Alternaria brassicae (leaf spot on radish); details: spray, graded 6 days after contamination vs control plants
Protocol: In Vivo Preventive Test on Alternaria brassicae (Leaf Spot on Radish)
as §3
Radish plants (“Pernod Clair” variety), sown in starter cups on a 50/50 peat soil-pozzolana substrate and grown at 17° C., are treated at the cotyledon stage by spraying with the active ingredient prepared as described above. Plants, used as controls, are treated with the mixture of acetone/tween/DMSO/water not containing the active material.
After 24 hours, the plants are contaminated by spraying the cotyledons with an aqueous suspension of Alternaria brassicae spores (50 000 spores per ml). The spores are collected from a 15-day-old culture. The contaminated radish plants are incubated at 20° C. and at 100% relative humidity.
Grading (% of efficacy) is carried out 6 days after the contamination, in comparison with the control plants.

[7] = test system: Sphaerotheca fuliginea; test: In vivo preventive test on Sphaerotheca fuliginea (powdery mildew on cucurbits); details: preventive spray, gherkin plants, grading 12 days after contamination
Protocol: In Vivo Preventive Test on Sphaerotheca fuliginea (Powdery Mildew on Cucurbits)
as §1, §2
After 24 hours, the plants are contaminated by spraying the cotyledons with an aqueous suspension of Sphaerotheca fuliginea spores (100 000 spores per ml). The spores are collected from infected plants. The contaminated gherkin plants are incubated at about 20° C. and at 70-80% relative humidity.
Grading (% of efficacy) is carried out 12 days after the contamination, in comparison with the control plants.

| SMILES | logP^[a] [1] | Eff. % ([3]; dose 500 ppm) [%] | Eff. % ([4]; 500 ppm) [%] | Eff. % ([5]; 500 ppm) [%] | Eff. % ([6]; dose 500 ppm) [%] | Eff. % ([7]; 500 ppm) [%] | also measured |
| --- | --- | --- | --- | --- | --- | --- | --- |
| CCC1(CC)CC(C)c2c(NC(=O)c3cc(C)cnc3C(F)F)cccc21 (racemic) [Example 79] | 4.31^[a] |  |  |  |  |  | Eff. % ([2]; dose 100 ppm): 80%; Eff. % ([3]; dose 100 ppm): 89% |
| Cc1ccc(NC(=O)c2cccnc2C(F)F)c2c1C(C)(C)CC2C (stereo not drawn) [Example 11] | 3.41^[a] | 98 |  |  |  |  | Eff. % ([2]; dose 500 ppm): 99% |
| CC1OC(C)(C)c2cccc(NC(=O)c3c(C(F)F)ccnc3C(F)F)c21 (stereo not drawn) [Example 40] | 2.66^[a] | 81 | 71 | 100 |  |  |  |
| CC1CC2(CC2)c2cccc(NC(=O)c3cccnc3C(F)F)c21 (racemic) [Example 42] | 3.00^[a] | 100 | 79 | 100 | 83 | 89 | Eff. % ([2]; dose 500 ppm): 99% |
| CC1(C)Cc2cccc(NC(=O)c3ccc(Cl)nc3C(F)F)c2C1 [Example 47] | 3.76^[a] | 72 | 71 |  |  |  |  |
| CCCON=C1CCc2c(NC(=O)c3cccnc3C(F)F)cccc21 [Example 7] | 3.00^[a] |  |  | 71 | 79 |  |  |
| CCC1CC(C)c2c(NC(=O)c3cccnc3C(F)F)cccc21 (stereo not drawn) [Example 88] | 3.37^[a] |  |  |  |  |  | Eff. % ([2]; dose 100 ppm): 89%; Eff. % ([3]; dose 100 ppm): 88% |
| CCC1(CC)OC(C)c2c(NC(=O)c3cccnc3C(F)F)cccc21 (racemic) [Example 25] | 2.86^[a] | 98 | 86 | 100 |  |  | Eff. % ([2]; dose 500 ppm): 96% |
| Cc1cnc(C(F)F)c(C(=O)Nc2ccc(F)c3c2C(C)CC3(C)C)c1 (stereo not drawn) [Example 23] | 3.64^[a] | 94 | 71 | 93 |  | 94 |  |
| CC1c2cccc(NC(=O)c3ccc(Cl)nc3C(F)F)c2CC1(C)C (stereo not drawn) [Example 64] | 4.04^[a] | 98 |  | 84 |  | 94 |  |
| CC1c2cccc(NC(=O)c3cccnc3C(F)F)c2CC1(C)C (stereo not drawn) [Example 62] | 3.35^[a] | 100 | 100 | 100 | 100 | 98 |  |
| CCC1(CC)CC(C)c2c(NC(=O)c3ccc(Cl)nc3C(F)F)cccc21 (racemic) [Example 80] | 4.72^[a] |  |  |  |  |  | Eff. % ([2]; dose 100 ppm): 70%; Eff. % ([3]; dose 100 ppm): 94%; Eff. % ([5]; 100 ppm): 91% |
| CCC1(CC)CC(C)c2c(NC(=O)c3cccnc3C(F)F)cccc21 (racemic) [Example 78] | 4.01^[a] |  |  |  |  |  | Eff. % ([6]; dose 100 ppm): 80%; Eff. % ([2]; dose 100 ppm): 98%; Eff. % ([3]; dose 100 ppm): 100%; Eff. % ([7]; 100 ppm): 98%; Eff. % ([5]; 100 ppm): 100% |
| CC1CC(C)(C)c2c(C3CC3)ccc(NC(=O)c3cccnc3C(F)F)c21 (stereo not drawn) [Example 10] | 3.79^[a] | 100 |  | 99 |  |  | Eff. % ([2]; dose 500 ppm): 100% |
| O=C(Nc1cccc2c1CCC21CC1)c1cccnc1C(F)F [Example 20] | 2.78^[a] | 94 |  | 100 |  |  | Eff. % ([2]; dose 500 ppm): 90% |
| CC1c2c(cccc2NC(=O)c2cccnc2C(F)F)CC1(C)C (stereo not drawn) [Example 85] | 3.29^[a] |  |  |  |  |  | Eff. % ([2]; dose 100 ppm): 98%; Eff. % ([3]; dose 100 ppm): 97%; Eff. % ([4]; 100 ppm): 79%; Eff. % ([7]; 100 ppm): 100% |
| CCC1OC(C)(C)c2cccc(NC(=O)c3cccnc3C(F)F)c21 (racemic) [Example 77] | 2.39^[a] |  |  |  |  |  | Eff. % ([6]; dose 100 ppm): 75%; Eff. % ([3]; dose 100 ppm): 98%; Eff. % ([4]; 100 ppm): 93%; Eff. % ([7]; 100 ppm): 98%; Eff. % ([5]; 100 ppm): 100% |
| CCC1(C)CC(C)c2c(NC(=O)c3cc(C)cnc3C(F)F)cccc21 (mixture of isomers) [Example 82] | 3.94^[a] |  |  |  |  |  | Eff. % ([2]; dose 100 ppm): 80%; Eff. % ([3]; dose 100 ppm): 94%; Eff. % ([5]; 100 ppm): 88% |
| CC1(C)Cc2cccc(NC(=O)c3cccnc3C(F)F)c2C1 [Example 49] | 3.06^[a] | 100 | 86 | 100 | 89 | 100 |  |
| CC1CC(CC(C)(C)C)c2cccc(NC(=S)c3cccnc3C(F)F)c21 (stereo not drawn) [Example 59] | 4.87^[a] | 98 | 75 | 100 | 88 | 98 |  |
| CC1OC(C)(C)c2c(Br)ccc(NC(=O)c3cccnc3C(F)F)c21 (stereo not drawn) [Example 15] | 2.89^[a] | 86 | 83 | 81 |  |  |  |
| CON=C1c2cccc(NC(=O)c3cccnc3C(F)F)c2CC1(C)C (mixture of isomers) [Example 34] |  | 93 | 100 |  |  | 100 |  |
| CON=C1CC(C)c2c(NC(=O)c3cccnc3C(F)F)cccc21 (racemic) [Example 30] | 2.32^[a] | 86 | 88 | 98 |  |  |  |
| CCC1Cc2c(NC(=O)c3cc(C)cnc3C(F)F)cccc2C1(C)C (stereo not drawn) [Example 38, 2-(difluoromethyl)-N-(2-ethyl-1,1-dimethyl-2,3-dihydro-1H-inden-4-yl)-5-methylnicotinamide] |  | 94 |  | 100 | 80 |  | chromatographic logP ([1]; reversed phase HPLC columns): 4.06 |
| CCC1(CC)Cc2c(NC(=O)c3cccnc3C(F)F)cccc2C1C (racemic) [Example 60] | 4.11^[a] | 98 | 100 | 100 | 100 | 100 |  |
| CCCCON=C1CCc2c(NC(=O)c3cccnc3C(F)F)cccc21 [Example 6] | 3.44^[a] |  |  |  | 71 |  |  |

Source: US9376391B2, “Difluoromethyl-nicotinic-tetrahydronaphthyl carboxamides as fungicides” (BAYER CROPSCIENCE AKTIENGESELLSCHAFT, priority 2012, dated 2016)
